Data from patent publication US11242337B2, “Compounds useful for treating gastrointestinal tract disorders” (Ardelyx, Inc., priority 2017, dated 2022).

Tests used:
[1] = biological target: T1, NHE3 (Homo sapiens, UniProt P48764); assay: Cell-based assay of NHE-3 activity (pre-incubation inhibition), human; conditions: human Preincubation
T1 construct: expressed in transfected cells
T1 sequence (P48764 26-834): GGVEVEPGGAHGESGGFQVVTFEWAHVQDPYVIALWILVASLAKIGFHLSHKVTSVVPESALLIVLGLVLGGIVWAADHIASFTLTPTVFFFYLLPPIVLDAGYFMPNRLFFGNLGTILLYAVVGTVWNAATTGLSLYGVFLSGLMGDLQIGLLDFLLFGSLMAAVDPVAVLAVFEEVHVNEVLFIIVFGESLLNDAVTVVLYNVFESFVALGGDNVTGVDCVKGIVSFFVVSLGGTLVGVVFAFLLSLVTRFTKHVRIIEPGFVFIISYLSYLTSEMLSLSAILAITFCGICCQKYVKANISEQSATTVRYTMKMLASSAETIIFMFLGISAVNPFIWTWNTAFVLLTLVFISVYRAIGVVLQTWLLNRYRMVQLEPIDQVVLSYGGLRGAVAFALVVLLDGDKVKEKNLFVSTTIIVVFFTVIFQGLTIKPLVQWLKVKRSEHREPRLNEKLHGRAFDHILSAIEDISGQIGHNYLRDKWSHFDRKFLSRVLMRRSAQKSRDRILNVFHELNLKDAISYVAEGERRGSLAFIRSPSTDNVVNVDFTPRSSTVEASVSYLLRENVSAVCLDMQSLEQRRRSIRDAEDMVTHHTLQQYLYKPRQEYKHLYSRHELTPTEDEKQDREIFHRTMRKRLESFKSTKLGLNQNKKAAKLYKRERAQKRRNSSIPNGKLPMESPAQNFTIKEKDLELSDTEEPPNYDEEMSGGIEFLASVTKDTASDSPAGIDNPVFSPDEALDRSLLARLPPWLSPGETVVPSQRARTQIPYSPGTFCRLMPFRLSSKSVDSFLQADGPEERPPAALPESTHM
T1 sequence (Q99653 2-195 partner limits assumed): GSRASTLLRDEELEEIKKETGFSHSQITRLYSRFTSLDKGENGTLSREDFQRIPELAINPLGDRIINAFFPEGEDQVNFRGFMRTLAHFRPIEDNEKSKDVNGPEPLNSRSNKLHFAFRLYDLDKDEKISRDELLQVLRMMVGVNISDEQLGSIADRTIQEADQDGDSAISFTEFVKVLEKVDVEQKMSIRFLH
Procedure: Rat and human NHE-3-mediated Na^+-dependent H^+ antiport was measured using a modification of the pH sensitive dye method originally reported by Paradiso (Proc. Natl. Acad. Sci. USA. (1984) 81(23): 7436-7440). PS120 fibroblasts stably expressing human NHE3 and NHERF2 were obtained from Mark Donowitz (Baltimore, Md.). Opossum kidney (OK) cells were obtained from the ATCC and propagated per their instructions. The rat NHE-3 gene (GenBank M85300) was introduced into OK cells via electroporation, and cells were seeded into 96 well plates and grown overnight. Medium was aspirated from the wells then incubated for 30 min at 37° C. with NH4Cl-HEPES buffer (20 mM NH4Cl, 80 mM NaCl, 50 mM HEPES, 5 mM KCl, 2 mM CaCl2, 1 mM MgCl2, pH 7.4) containing 5 μM BCECF-AM. Cells were washed once with Ammonium free, Na^+-free HEPES (100 mM choline, 50 mM HEPES, 10 mM glucose, 5 mM KCl, 2 mM CaCl2, 1 mM MgCl2, pH 7.4) and incubated in the same buffer for 10 minutes at room temperature to lower intracellular pH with 0-30 μM test compound. […] Changes in intracellular pH were monitored using a FLIPR Tetra® (Molecular Devices, Sunnyvale, Calif.) by excitation at λex 439 to 505 nm, and measuring BCECF fluorescence at λem 538 nm. The initial rate of the fluorescence ratio change was used as a measure of NHE-mediated Na^+/H^+ activity, and reported as the change in fluorescence ratio per minute.

[2] = biological target: T1, NHE3; assay: Cell-based assay of NHE-3 activity (persistent inhibition), human; conditions: human Persistence, 60 min incubation then washout
Procedure: The ability of compounds to inhibit human and rat NHE-3-mediated Na^+ dependent H^+ antiport after application and washout was measured using a modification of the pH sensitive dye method described above. PS120 fibroblasts stably expressing human NHE3 and NHERF2 were obtained from Mark Donowitz (Baltimore, Md.). Opossum kidney (OK) cells were obtained from the ATCC and propagated per their instructions. The rat NHE-3 gene was introduced into OK cells via electroporation, and cells were seeded into 96 well plates and grown overnight. Medium was aspirated from the wells, cells were washed once with NaCl-HEPES buffer (100 mM NaCl, 50 mM HEPES, 10 mM glucose, 5 mM KCl, 2 mM CaCl2, 1 mM MgCl2, pH 7.4), then overlayed with NaCl-HEPES buffer containing 0-30 μM test compound. After a 60 min incubation at room temperature, the test drug containing buffer was aspirated from the cells. Following aspiration, cells were washed once with NaCl-HEPES buffer without drug, then incubated for 30 min at 37° C. with NH4Cl-HEPES buffer (20 mM NH4Cl, 80 mM NaCl, 50 mM HEPES, 5 mM KCl, 2 mM CaCl2, 1 mM MgCl2, pH 7.4) containing 5 μM BCECF-AM. Cells were washed once with Ammonium free, Na^+-free HEPES (100 mM choline, 50 mM HEPES, 10 mM glucose, 5 mM KCl, 2 mM CaCl2, 1 mM MgCl2, pH 7.4) and incubated in the same buffer for 10 minutes at room temperature to lower intracellular pH. NHE-3-mediated recovery of neutral intracellular pH was initiated (10 min after compound washout) by addition of Na-HEPES buffer. […] Changes in intracellular pH were monitored using a FLIPR Tetra® (Molecular Devices, Sunnyvale, Calif.) by excitation at λex 439 to 505 nm, and measuring BCECF fluorescence at λem 538 nm. The initial rate of the fluorescence ratio change was used as a measure of NHE-mediated Na^+/H^+ activity, and reported as the change in fluorescence ratio per minute.

Structure (SMILES) | % inhibition [1] | pIC50 ([1]; 0-30 μM test compound) | % inhibition [2] | pIC50 [2] | IC50 [2] [nM] | IC50 ([1]; 0-30 μM test compound) [nM]
C[C@@H]1CN([C@H]2Cc3c(C#N)cc(Cl)cc3[C@@H]2Oc2ccc(S(=O)(=O)N[C@@H]3CCN(CCOCCNC(=O)NCCCCNC(=O)NCCOCCN4CC[C@@H](NS(=O)(=O)c5ccc(O[C@H]6c7cc(Cl)cc(C#N)c7C[C@@H]6N6C[C@@H](C)N[C@@H](C)C6)cc5)C4)C3)cc2)C[C@H](C)N1 [Example 137, 4-([(1S,2S)-6-Chloro-4-cyano-2-[(3S,5R)-3,5-dimethylpiperazin-7-yl]-2,3-dihydro-1H-inden-1-yl]oxy)-N—[(R)-1-(20-[(R)-3-([4-([(1S,2S)-6-chloro-4-cyano-2-[(3S,5R)-3,5-dimethylpiperazin-1-yl]-2,3-dihydro-1H-inden-1-yl]oxy)phenyl]sulfonamido)pyrrolidin-1-yl]-7,14-dioxo-3,18-dioxa-6,8,13,15-tetraazaicosyl)pyrrolidin-3-yl]benzenesulfonamide; bis(trifluoroacetic acid)] | C (>70%) | C (NHE3 pIC50 > 7) | C (>70%) | C (NHE3 pIC50 > 7) | – | –
N#Cc1cc(Cl)cc2c1C[C@H](N1CCNCC1)[C@H]2Oc1ccc(S(=O)(=O)NC(=O)CCCNC(=O)NCCCCNC(=O)NCCCC(=O)NS(=O)(=O)c2ccc(O[C@H]3c4cc(Cl)cc(C#N)c4C[C@@H]3N3CCNCC3)cc2)cc1 [Example 124, N^1,N^18-Bis([4-([(1S,2S)-6-chloro-4-cyano-2-(piperazin-1-yl)-2,3-dihydro-1H-inden-1-yl]oxy)phenyl]sulfonyl)-6,13-dioxo-5,7,12,14-tetraazaoctadecanediamide] | C (>70%) | C (NHE3 pIC50 > 7) | C (>70%) | – | 100 to 1000 | –
Cc1cc(Cl)cc2c1C[C@H](N1CCC[C@@H](N)C1)[C@H]2Oc1ccc(S(=O)(=O)NCCOCCOCCNC(=O)NCCCCNC(=O)NCCOCCOCCNS(=O)(=O)c2ccc(O[C@H]3c4cc(Cl)cc(C)c4C[C@@H]3N3CCC[C@@H](N)C3)cc2)cc1 [Example 3, 3-[2-(2-[2-[(4-[[(1S,2S)-2-[(3R)-3-Aminopiperidin-1-yl]-6-chloro-4-methyl-2,3-dihydro-1H-inden-1-yl]oxy]benzene)sulfonamido]ethoxy]ethoxy)ethyl]-1-[4-([[2-(2-[2-[(4-[[(1S,2S)-2-[(3R)-3-aminopiperidin-1-yl]-6-chloro-4-methyl-2,3-dihydro-1H-inden-1-yl]oxy]benzene)sulfonamido]ethoxy]ethoxy)ethyl]carbamoyl]amino)butyl]urea] | C (>70%) | – | C (>70%) | – | – | –
C[C@@H]1CCCCN1[C@H]1Cc2c(Cl)cc(Cl)cc2[C@@H]1Oc1ccc(S(=O)(=O)NCCOCCOCCNC(=O)NCCCCNC(=O)NCCOCCOCCNS(=O)(=O)c2ccc(O[C@H]3c4cc(Cl)cc(Cl)c4C[C@@H]3N3CCCC[C@H]3C)cc2)cc1 [Example 66, 3-[2-(2-[2-[(4-[[(1S,2S)-4,6-Dichloro-2-[(2R)-2-methylpiperidin-1-yl]-2,3-dihydro-1H-inden-1-yl]oxy]benzene)sulfonamido]ethoxy]ethoxy)ethyl]-1-[4-([[2-(2-[2-[(4-[[(1S,2S)-4,6-dichloro-2-[(2R)-2-methylpiperidin-1-yl]-2,3-dihydro-1H-inden-1-yl]oxy]benzene)sulfonamido]ethoxy]ethoxy)ethyl]carbamoyl]amino)butyl]urea] | A (NHE3 < 40%) | A (NHE3 pIC50 < 6) | A (NHE3 < 40%) | A (NHE3 pIC50 < 6) | – | –
CN(C)[C@@H]1CCCN([C@H]2Cc3c(C#N)cc(Cl)cc3[C@@H]2Oc2ccc(S(=O)(=O)NCCOCCOCCNC(=O)NCCCCNC(=O)NCCOCCOCCNS(=O)(=O)c3ccc(O[C@H]4c5cc(Cl)cc(C#N)c5C[C@@H]4N4CCC[C@@H](N(C)C)C4)c(F)c3)cc2F)C1 [Example 40, 3-[2-(2-[2-[(4-[[(1S,2S)-6-Chloro-4-cyano-2-[(3R)-3-(dimethylamino)piperidin-1-yl]-2,3-dihydro-1H-inden-1-yl]oxy]-3-fluorobenzene)sulfonamido]ethoxy]ethoxy)ethyl]-1-[4-([[2-(2-[2-[(4-[[(1S,2S)-6-chloro-4-cyano-2-[(3R)-3-(dimethylamino)piperidin-1-yl]-2,3-dihydro-1H-inden-1-yl]oxy]-3-fluorobenzene)sulfonamido]ethoxy]ethoxy)ethyl]carbamoyl]amino)butyl]urea; bis(trifluoroacetic acid)] | A (NHE3 < 40%) | – | A (NHE3 < 40%) | – | – | –
N#Cc1cc(Cl)cc2c1C[C@H](N1CCNCC1)[C@H]2Oc1ccc(S(=O)(=O)N[C@@H]2CCN(CCOCCNC(=O)NCCCCNC(=O)NCCOCCN3CC[C@@H](NS(=O)(=O)c4ccc(O[C@H]5c6cc(Cl)cc(C#N)c6C[C@@H]5N5CCNCC5)cc4)C3)C2)cc1 [Example 108, 4-([(1S,2S)-6-Chloro-4-cyano-2-(piperazin-1-yl)-2,3-dihydro-1H-inden-1-yl]oxy)-N—[(R)-1-(20-[(R)-3-([4-([(1S2S)-6-chloro-4-cyano-2-(piperazin-1-yl)-2,3-dihydro-1H-inden-1-yl]oxy)phenyl]sulfonamido)pyrrolidin-1-yl]-7,14-dioxo-3,18-dioxa-6,8,13,15-tetraazaicosyl)pyrrolidin-3-yl]benzenesulfonamide; tetra(trifluoroacetate)] | C (>70%) | C (NHE3 pIC50 > 7) | C (>70%) | C (NHE3 pIC50 > 7) | – | –
N[C@@H]1CCCN([C@H]2Cc3c(Cl)cc(Cl)cc3[C@@H]2Oc2ccc(S(=O)(=O)NCCCCn3cc(CNC(=O)NCCCCNC(=O)NCc4cn(CCCCNS(=O)(=O)c5ccc(O[C@H]6c7cc(Cl)cc(Cl)c7C[C@@H]6N6CCC[C@@H](N)C6)cc5)nn4)nn3)cc2)C1 [Example 58, 3-[(1-[4-[(4-[[(1S,2S)-2-[(3R)-3-Aminopiperidin-1-yl]-4,6-dichloro-2,3-dihydro-1H-inden-1-yl]oxy]benzene)sulfonamido]butyl]-1H-1,2,3-triazol-4-yl)methyl]-1-[4-([[(1-[4-[(4-[[(1S,2S)-2-[(3R)-3-aminopiperidin-1-yl]-4,6-dichloro-2,3-dihydro-1H-inden-1-yl]oxy]benzene)sulfonamido]butyl]-1H-1,2,3-triazol-4-yl)methyl]carbamoyl]amino)butyl]urea] | C (>70%) | – | C (>70%) | – | < 100 | < 100
